Like-named read-outs stand apart in the source and are kept apart here.

In data set [1] the target is T1, HCMV DNA polymerase (UL54) (Human cytomegalovirus, UniProt P08546).
T1 construct: 6His (C); made in house; host or cells: Sf9 insect cells (baculovirus, pFastBac)
Kind of data set: HCMV DNA polymerase enzyme inhibition assay (ProFoldin, fluorescence). As to conditions: 37° C., duplicate, max 40 μM. The data set is classed as biochemical. The method, then:
The HCMV DNA polymerase assay was developed by ProFoldin. The assay detects the formation of DNA from the DNA polymerase reaction in the presence of a DNA template, dATP and dGTP. The formation of the DNA is detected by using a fluorescence method. The fluorescence intensity increases when DNA is generated by the enzyme reaction.
A time-course experiment was performed aside the enzyme inhibition assay to ensure the assay was sensitive to the enzyme inhibition. The wells for the time-course experiment contained 1 μL of DMSO and the same reaction mixture as that in the enzyme inhibition assay. The time-course data varied between plates. The reactions were stopped when the fluorescence reached a value of about 3700 for each plate.
Exemplary solid compounds (e.g., as described herein) were dissolved in DMSO to make […] stock solutions. PFA (phosphonoformic acid or phosphonomethanoic acid) was used as a positive control. The compound mother plates were prepared at 50× concentrated compound concentrations with a 2-fold serial dilution. All the exemplary compounds except PFA were diluted in DMSO. PFA was diluted in water. The maximum compound concentration was 2 mM that gave the final concentration of 40 μM in the assay. One microliter of the 50× stock solutions was transferred into the assay plates. Three copies of assay plates were prepared, two for HCMV DNA polymerase assay and one for compound background control.
The following is the protocol for enzyme inhibition performed at 37° C.:
1. Prepared a premix composed of 35347 μL of H2O, 5220 μL of 10× assay buffer and 149 μL of 350×HCMV DNA polymerase.
2. Added 39 μL of the premix into the wells with 1 μL of the compound. Incubated the mixture for at least 5 min.
3. Added 10 μL of 5×dNTP (0.1 mM), 5×DNA template solutions into each well and incubated the solution until the fluorescence value reached a value about 3700 for the DMSO-only control wells.
4. Added 50 μL of the 1× dye into the wells.
5. Read the fluorescence at emission wavelength of 535 nm and excitation wavelength of 485 nm.
For the compound background reading, added 99 μL of water in the wells with 1 μL of compounds and read the fluorescence. […] The 0% inhibition value F0 was from the wells with DMSO (no inhibitor).
The background values were subtracted from the fluorescence reading to get the net fluorescence values. The net fluorescence values were used for calculation of the percentage inhibition.
The assay was performed in duplicate for the test article at […], 1.25, 0.625, 0.313, 0.156 and 0.078 μM. The IC50 curves were obtained by fitting the percentage inhibition values with the compound concentrations using Prism GraphPad software.

Data set [2] has as its system HCMV US3-6-EGFP-HCMV-AD169 strain. Kind of data set: In vitro inhibitory (antiviral) activity against HCMV, GFP reporter in MRC5 cells. It is filed as cell-based, Human cytomegalovirus (HCMV). As to conditions: Human betaherpesvirus 5, AD169, MRC5, 96 h, read-out: HCMV Antiviral EC50 range. As for the experimental part:
(§1) Exemplary compounds (e.g., as described herein) were prepared as 20 mM stock solutions with DMSO. Reference compound was ganciclovir (Sigma). Compounds were tested at 8 concentrations, 3-fold serial dilutions, in duplicate for EC50 and CC50 determinations. The highest testing concentrations of the exemplary compounds and reference compound were 40 μM and 100 μM, respectively. The final concentration of DMSO in the cell culture was 0.5%.
HCMV US3-6-EGFP-HCMV-AD169 strain was obtained from Institute Pasteur of Shanghai, CAS. The virus contains GFP as a reporter of the viral replication.
(§2) MRC5 cells (ATCC CCL-171) was obtained from the ATCC and maintained in the EMEM (Sigma) supplemented with 10% FBS (HyClone), 1% L-glutamine (Gibco), 1% NEAA (Gibco), and 1% PS (Hyclone). Reagent:
In 96-well plates, MRC5 cells were seeded at 20,000 cells per well and cultured at 37° C. and 5% C02 overnight. Next day, compounds (8 concentrations, 3-fold dilutions, in duplicate) and US3-6-EGFP-HCMV-AD169 (MOI=0.1) were added to the cells. The resulting cultures were incubated at 37° C. and 5% C02 for 4 days. Fluorescence intensity was determined by Acumen Cellista (TTP LabTech). The antiviral activity of each compound was calculated based on the inhibition of expression of GFP at each concentration normalized by the cell control (cells without virus infection or compound treatment).
(§3) Antiviral activity and cytotoxicity of the compounds were expressed as % Inhibition and % Viability, respectively, and calculated with the formulas below:
Inhibition (%)=100−(Raw dataCPD−AverageCC)/(AverageVC−AverageCC)*100
(§4) Raw dataCPD indicates the values of the compound-treated wells; AverageVC, AverageCC and AverageMC indicate the average values of the virus control (cells infected with virus, without compound treatment), cell control and medium control wells, respectively.
(§5) EC50 and CC50 values were calculated using the GraphPad Prism software.

Data set [3] is described as follows: Cytotoxicity in MRC5 cells without virus infection (CCK8). The data set is classed as cell-based. To be noted: human. As for the experimental part:
as §1, §2
Cytotoxicity of the compounds was assessed under the same conditions, but without virus infection, in parallel. Cell viability was measured with CCK8 following the manufacturer's manual. CC50 values were then calculated based on cytotoxicity at the test concentrations normalized by the medium control (medium only).
as §3
Viability (%)=(Raw dataCPD−AverageMC)/(AverageCC−AverageMC)*100
as §4, §5

In data set [4] the target is T2, hERG potassium channel (Homo sapiens, UniProt Q12809).
T2 construct: host or cells: CHO cells stably expressing hERG
T2 sequence (Q12809 whole entry): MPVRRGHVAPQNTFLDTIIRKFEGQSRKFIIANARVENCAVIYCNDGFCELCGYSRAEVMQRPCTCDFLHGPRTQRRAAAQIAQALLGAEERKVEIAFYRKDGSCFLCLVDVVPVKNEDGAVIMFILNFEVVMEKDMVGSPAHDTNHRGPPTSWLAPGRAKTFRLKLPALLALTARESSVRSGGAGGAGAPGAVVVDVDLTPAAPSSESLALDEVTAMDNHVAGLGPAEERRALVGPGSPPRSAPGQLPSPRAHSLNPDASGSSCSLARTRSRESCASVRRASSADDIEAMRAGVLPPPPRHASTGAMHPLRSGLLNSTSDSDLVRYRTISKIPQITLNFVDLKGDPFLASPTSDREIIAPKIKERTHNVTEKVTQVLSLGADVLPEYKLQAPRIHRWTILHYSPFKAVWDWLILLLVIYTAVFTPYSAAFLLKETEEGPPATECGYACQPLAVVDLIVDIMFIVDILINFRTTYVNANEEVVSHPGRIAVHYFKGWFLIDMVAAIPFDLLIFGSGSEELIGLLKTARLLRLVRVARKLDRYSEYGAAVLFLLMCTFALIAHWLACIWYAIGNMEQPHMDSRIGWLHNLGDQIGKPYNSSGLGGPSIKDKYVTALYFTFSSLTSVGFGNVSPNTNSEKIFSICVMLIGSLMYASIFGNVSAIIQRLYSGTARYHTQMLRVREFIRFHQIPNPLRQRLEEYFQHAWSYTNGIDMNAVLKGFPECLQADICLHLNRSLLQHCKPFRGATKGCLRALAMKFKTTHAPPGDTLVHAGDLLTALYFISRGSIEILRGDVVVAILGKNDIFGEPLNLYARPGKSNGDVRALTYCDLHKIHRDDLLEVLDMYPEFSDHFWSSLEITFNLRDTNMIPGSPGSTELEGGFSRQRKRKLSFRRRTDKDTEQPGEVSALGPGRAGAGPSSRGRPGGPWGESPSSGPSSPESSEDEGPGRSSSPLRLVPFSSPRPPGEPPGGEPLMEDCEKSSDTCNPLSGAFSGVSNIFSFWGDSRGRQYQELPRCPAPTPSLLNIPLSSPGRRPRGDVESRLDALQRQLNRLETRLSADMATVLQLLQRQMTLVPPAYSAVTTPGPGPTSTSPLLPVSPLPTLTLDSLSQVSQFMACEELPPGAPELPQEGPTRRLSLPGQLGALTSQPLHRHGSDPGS
Kind of data set: Inhibition of hERG potassium channel, automated patch clamp (SyncroPatch 384PE) in CHO cells. It is filed as cell-based. The method, then: This automated patch clamp method (SyncroPatch 384PE) CHO cells stably expressing hERG potassium channels from Sophion Biosciences were used for this test.
The cells were cultured in a humidified and air-controlled (5% C02) incubator at 37° C.
The CHO cells which were at least two days after plating and more than 75% confluent would be used for experiments. Before testing, cells were harvested using TrypLE and resuspended in the physiological solution at the room temperature.
For the electrophysiological recordings the following solutions were used (Table 5). The physiological solution and external solution were prepared at least one month. The intracellular solution was prepared in batches aliquoted, and stored at 4° C. until used.
Exemplary compounds (e.g., as described herein) were dissolved in 100% DMSO to obtain stock solutions for different test concentrations. Then the stock solutions were further diluted into external solution to achieve final concentrations for testing. Visual check for precipitation was conducted before testing. Final DMSO concentration in external solution was not more than 0.30% for the compounds.
From this holding potential of −80 mV, the voltage was first stepped to −50 mV for 80 ms for leak subtraction, and then stepped to +20 mV for 4800 ms to open hERG channels. After that, the voltage was stepped back down to −50 mV for 5000 ms, causing a “rebound” or tail current, which was measured and collected for data analysis. Finally, the voltage was stepped back to the holding potential (−80 mV, 1000 ms). This voltage command protocol was repeated every 20000 msec. This command protocol was performed continuously during the test (vehicle control and test compound).
hERG SyncroPatch assay was conducted at room temperature. The Setup, Prime Chip, Catch and Seal Cells, Amplifier Settings, Voltage and Application Protocols were established with Biomek Software (Nanion).
One addition of 40 μL of the vehicle was applied, followed by 300s for a baseline period. Then the doses of exemplary test compounds were added with 40 μL. The exposure of test compound at each concentration was no less than 300s. […] Five concentrations (0.494 μM, 1.48 μM, 4.44 μM, 13.33 μM and 40.00 μM) were tested for each compound. Minimum 2 replicates per concentration were obtained.
Within each well recording, percent of control values were calculated for each test compound concentration current response based on peak current in presence of reference control (current response/peak current)×100%. The Dose-Response curves were fit to the standard Hill equation as shown below:
Ipost cpd/Ipre cpd=Bottom+(Top−Bottom)/(1+10^((Log IC50−X)*HillSlope))
Where X is the logarithm of concentration, Ipost cpd/Ipre cpd is the normalized peak current amplitude, Top is 1 and Bottom is equal to 0.
Curve-fitting and IC50 calculations were performed by GraphPad Prism 5.0. If the inhibition obtained at the lowest concentration tested was over 50%, or at the highest concentration tested was less than 50%, we reported the IC50 as less than lowest concentration, or higher than highest concentration, respectively.

Setting [5] is: CHO cells stably expressing hERG, room temperature, 0.494-40.00 μM, read-out: CHO-hERG Activity Range.

T1 sequence (P08546 whole entry): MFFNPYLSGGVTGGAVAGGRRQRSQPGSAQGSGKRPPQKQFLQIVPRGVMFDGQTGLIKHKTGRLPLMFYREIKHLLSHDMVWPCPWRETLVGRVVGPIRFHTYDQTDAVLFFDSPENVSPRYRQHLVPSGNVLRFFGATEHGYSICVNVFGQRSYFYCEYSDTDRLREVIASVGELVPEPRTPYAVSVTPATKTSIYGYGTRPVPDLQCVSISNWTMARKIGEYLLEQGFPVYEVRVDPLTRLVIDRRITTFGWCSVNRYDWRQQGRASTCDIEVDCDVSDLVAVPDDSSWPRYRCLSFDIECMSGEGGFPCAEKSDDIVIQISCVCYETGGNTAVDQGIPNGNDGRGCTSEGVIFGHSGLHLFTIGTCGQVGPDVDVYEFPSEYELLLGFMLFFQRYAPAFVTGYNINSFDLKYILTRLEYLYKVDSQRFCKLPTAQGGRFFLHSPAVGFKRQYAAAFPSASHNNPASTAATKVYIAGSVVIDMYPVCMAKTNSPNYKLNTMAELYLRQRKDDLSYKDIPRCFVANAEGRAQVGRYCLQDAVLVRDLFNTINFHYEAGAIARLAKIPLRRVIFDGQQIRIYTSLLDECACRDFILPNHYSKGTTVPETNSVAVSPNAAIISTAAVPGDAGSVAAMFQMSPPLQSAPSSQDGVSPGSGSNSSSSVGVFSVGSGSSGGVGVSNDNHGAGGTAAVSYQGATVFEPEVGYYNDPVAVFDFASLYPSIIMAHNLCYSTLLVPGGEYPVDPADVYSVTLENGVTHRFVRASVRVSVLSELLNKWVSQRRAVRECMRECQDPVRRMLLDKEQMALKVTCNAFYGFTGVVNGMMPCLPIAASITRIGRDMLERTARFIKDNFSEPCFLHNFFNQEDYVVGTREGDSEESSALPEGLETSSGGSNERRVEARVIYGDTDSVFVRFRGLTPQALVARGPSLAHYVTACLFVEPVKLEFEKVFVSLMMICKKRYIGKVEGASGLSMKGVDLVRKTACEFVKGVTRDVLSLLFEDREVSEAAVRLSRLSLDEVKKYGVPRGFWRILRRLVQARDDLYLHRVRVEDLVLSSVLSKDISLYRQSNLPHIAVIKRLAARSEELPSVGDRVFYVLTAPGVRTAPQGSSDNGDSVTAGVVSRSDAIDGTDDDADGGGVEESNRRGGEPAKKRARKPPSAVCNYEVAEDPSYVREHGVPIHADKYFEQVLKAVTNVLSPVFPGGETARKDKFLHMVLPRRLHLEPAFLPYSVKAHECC

For the molecule `CC1(F)CN(C(=O)Cn2c(=O)c(C(=O)NCc3ccc(Cl)cc3)cc3nc(N4CCN(CC(=O)NC#N)C4=O)cnc32)C1` [Compound 26, N-[(4-chlorophenyl)methyl]-2-{3-[2-(cyanoamino)-2-oxoethyl]-2-oxoimidazolidin-1-yl}-5-[2-(3-fluoro-3-methylazetidin-1-yl)-2-oxoethyl]-6-oxo-5,6-dihydropyrido[2,3-b]pyrazine-7-carboxamide], the IC50 in data set [1] was < 1 µM; in data set [4] (setting [5]) it was > 10 µM. Moreover, in data set [2], the concentration giving a half-maximal response (EC50) (commonly the concentration needed to bring the measured effect to its halfway point) is > 1 µM. Also, the CC50 (commonly the concentration giving 50% cytotoxicity) at 4 days in data set [3] is > 40 µM.

As to `CC1(F)CN(C(=O)Cn2c(=O)c(C(=O)NCc3ccc(Cl)cc3)cc3nc(N4CC(=O)NC4=O)cnc32)C1` [Compound 41, N-[(4-chlorophenyl)methyl]-2-(2,4-dioxoimidazolidin-1-yl)-5-[2-(3-fluoro-3-methylazetidin-1-yl)-2-oxoethyl]-6-oxo-5,6-dihydropyrido[2,3-b]pyrazine-7-carboxamide], the IC50 is < 1 µM in data set [1] and > 10 µM in data set [4] (setting [5]). In data set [2], the EC50 is > 1 µM. Besides, the cytotoxic concentration (CC50) at 4 days in data set [3] came to 23 µM.

On to `CC(C)(C(=O)O)N1CCN(c2cnc3c(cc(C(=O)NCc4ccc(Cl)cc4)c(=O)n3CC(=O)N3CC4(CC4)C3)n2)C1=O` [Compound 44, 2-[3-(5-[2-(5-azaspiro[2.3]hexan-5-yl)-2-oxoethyl]-7-{[(4-chlorophenyl)methyl]carbamoyl}-6-oxo-5,6-dihydropyrido[2,3-b]pyrazin-2-yl)-2-oxoimidazolidin-1-yl]-2-methylpropanoic acid], for which the figures for the IC50 in data set [1] and in data set [4] were < 1 µM and > 10 µM, respectively. Also, in data set [2], the EC50 was < 1 µM. Further, in data set [3], the CC50 at 4 days is > 40 µM.

Regarding `CC(=O)N(C)CCN1CCN(c2cnc3c(cc(C(=O)NCc4ccc(Cl)cc4)c(=O)n3CC(=O)N3CC(C)(F)C3)n2)C1=O` [Compound 22, 2-(3-{2-[acetyl(methyl)amino]ethyl}-2-oxoimidazolidin-1-yl)-N-[(4-chlorophenyl)methyl]-5-[2-(3-fluoro-3-methylazetidin-1-yl)-2-oxoethyl]-6-oxo-5,6-dihydropyrido[2,3-b]pyrazine-7-carboxamide], the IC50 was < 1 µM in data set [1] and > 10 µM in data set [4] (setting [5]). Besides, in data set [2], the concentration giving a half-maximal response (EC50) is > 1 µM. Moreover, the CC50 at 4 days in data set [3] is > 40 µM.

As to `CN1CCN(c2cnc3c(cc(C(=O)NCc4ccc(Cl)cc4)c(=O)n3CC(=O)N3CC(C)(F)C3)n2)C1=O` [Compound 3, N-[(4-chlorophenyl)methyl]-5-[2-(3-fluoro-3-methylazetidin-1-yl)-2-oxoethyl]-2-(3-methyl-2-oxoimidazolidin-1-yl)-6-oxo-5,6-dihydropyrido[2,3-b]pyrazine-7-carboxamide], the figures for the IC50 in data set [1] and in data set [4] (setting [5]) were < 1 µM and > 10 µM, respectively. Also, the concentration for a half-maximal effect (EC50) in data set [2] was < 1 µM. Further, in data set [3], the cytotoxic concentration (CC50) at 4 days was > 40 µM.

As for `CC1(F)CN(C(=O)Cn2c(=O)c(C(=O)NCc3ccc(Cl)cc3)cc3nc(N4CCN(CC(=O)O)C4=O)cnc32)C1` [Compound 13, [3-(7-{[(4-chlorophenyl)methyl]carbamoyl}-5-[2-(3-fluoro-3-methylazetidin-1-yl)-2-oxoethyl]-6-oxo-5,6-dihydropyrido[2,3-b]pyrazin-2-yl)-2-oxoimidazolidin-1-yl]acetic acid], the IC50 is < 1 µM in data set [1] and > 10 µM in data set [4] (setting [5]). Also, the 50% effective concentration (EC50) in data set [2] is > 1 µM. Further, the CC50 at 4 days in data set [3] was > 40 µM.

As for `CC1(C)CN(C(=O)Cn2c(=O)c(C(=O)NCc3ccc(Cl)cc3)cc3nc(N4CCN(CC(=O)O)C4=O)cnc32)C1` [Compound 5, [3-(7-{[(4-chlorophenyl)methyl]carbamoyl}-5-[2-(3,3-dimethylazetidin-1-yl)-2-oxoethyl]-6-oxo-5,6-dihydropyrido[2,3-b]pyrazin-2-yl)-2-oxoimidazolidin-1-yl]acetic acid], the EC50 in data set [2] is > 1 µM. Besides, in data set [3], the cytotoxic concentration (CC50) at 4 days is > 40 µM. In data set [4] (setting [5]), the IC50 is > 10 µM.

As to `O=C(O)CN1CCN(c2cnc3c(cc(C(=O)NCc4ccc(Cl)cc4)c(=O)n3CC(=O)N3CC4(CC4)C3)n2)C1=O` [Compound 20, [3-(5-[2-(5-azaspiro[2.3]hexan-5-yl)-2-oxoethyl]-7-{[(4-chlorophenyl)methyl]carbamoyl}-6-oxo-5,6-dihydropyrido[2,3-b]pyrazin-2-yl)-2-oxoimidazolidin-1-yl]acetic acid], the EC50 in data set [2] was > 1 µM. Moreover, in data set [3], the CC50 at 4 days was > 40 µM. For the same molecule, the IC50 in data set [4] (setting [5]) was > 10 µM.

Source of the values: patent US20230136702A1, “Inhibitors of Human Herpesviruses” (The Governors of the University of Alberta, priority 2020, published 2023).
